Experimental data: patent publication EP0561850B1, “7-SUBSTITUTED-6-FLUORO-1,4-DIHYDRO-4-OXO-QUINOLINE-3-CARBOXYLIC ACID COMPOUNDS USEFUL AS ANTIBACTERIAL AGENTS” (priority 1990, dated 1992)
Converted amounts (≈) assume the structure as drawn. Counter-ions that a name gives are not always drawn. Like-named read-outs stand apart in the source and are kept apart here.

Experiments:
[1] = tested on: Staphylococcus aureus S-127; test: In vitro antimicrobial activity against aerobes, broth microdilution (NCCLS 1985); assay type: cell-based; conditions: S127, read after 16-18 hours
Method: For aerobic microorganisms, a cation supplemented Mueller Hinton Broth (BBL) was used whereas the Anaerobe Broth MIC (Difco) was used for anaerobic microorganisms. An agar Dilution method was employed for certain aerobic microorganisms using Mueller Hinton II Agar (BBL) and a Cathra multipoint inoculating device which delivered 10^4 cfu/spot of the inoculum on the agar surface. MICs were read after 16-18 hours and 48 hours of incubation in case of microbes growing aerobically and anaerobically respectively.

[2] = tested on: Enterobacter cloacae S-130; test: Microbroth dilution (MHB) method, NCCLS M7-A2; assay type: cell-based; conditions: 35 °C/18 hr
Method: (§1) The test organisms were obtained from ATCC and clinical laboratories. The 96-well microtitre plates containing […] of serially diluted test compounds in Mueller Hinton Broth (MHB) (conc. range 64-0.03 µg/ml) were inoculated with […] of bacterial suspension in MHB so that an inoculum size of 5 x 10^5 cfu/ml was achieved.
(§2) EC. (S- 63): Eschericia coli Ecl. (S- 130): Enterobacter cloacae Pa. (S- 67): Pseudomonas aeruginosa Kp. (S- 80): Klebsiella pneumoniae Pr.
(§3) Microbroth Dilution (MHB) method; Inoculum, 5 x 10^5 cfu/ml; Incubation 35 °C/18 hr

[3] = tested on: Eschericia coli S-63; test: Microbroth dilution (MHB) method, NCCLS M7-A2; assay type: cell-based; conditions: Ec S-63, inoculum 5 x 10^5 cfu/ml, 35 °C/18 hr
Method: as §1, §2, §3

[4] = tested on: Klebsiella pneumoniae S-80; test: Microbroth dilution (MHB) method, NCCLS M7-A2; assay type: cell-based; conditions: Kp S-80, MHB, inoculum 5 x 10^5 cfu/ml, 35 °C/18 hr
Method: as §1, §2, §3

[5] = tested on: Providencia rettgeri S-121; test: Microbroth dilution (MHB) method, NCCLS M7-A2; assay type: cell-based; conditions: 35 °C/18 hr
Method: as §1, §2, §3

[6] = tested on: Pseudomonas aeruginosa S-67; test: Microbroth dilution (MHB) method, NCCLS M7-A2; assay type: cell-based; conditions: Pa S-67, MHB, inoculum 5 x 10^5 cfu/ml, 35 °C/18 hr
Method: as §1, §2, §3

[7] = tested on: Staphylococcus aureus S-127; test: Microbroth dilution (MHB) method, NCCLS M7-A2; assay type: cell-based; conditions: 35 °C/18 hr
Method: as §1, §2, §3

[8] = tested on: Sa 127M; test: Microbroth dilution (MHB) method, NCCLS M7-A2; assay type: cell-based, Staphylococcus aureus; conditions: inoculum 5 x 10^5 cfu/ml, 35 °C/18 hr
Method: as §1, §2, §3

[9] = Ecl S-130, inoculum 5 x 10^5 cfu/ml
[10] = Pr S-121, inoculum 5 x 10^5 cfu/ml
[11] = Sa S-127, inoculum 5 x 10^5 cfu/ml
[12] = Enterobacter cloacae, S130, Ecl S-130, inoculum 5 x 10^5 cfu/ml, read-out: MIC
[13] = Klebsiella pneumoniae, S80, read-out: MIC
[14] = Providencia rettgeri, S121, Pr S-121, inoculum 5 x 10^5 cfu/ml, read-out: MIC
[15] = Pseudomonas aeruginosa, S67, read-out: MIC
[16] = Staphylococcus aureus, S127, Sa S-127, inoculum 5 x 10^5 cfu/ml, read-out: MIC
[17] = Staphylococcus aureus, read-out: MIC

Compound | MIC [1] [µg/mL] | MIC [2, 12] [µg/mL] | MIC ([3]; read-out: MIC) [µg/mL] | MIC [4, 13] [µg/mL] | MIC [5, 14] [µg/mL] | MIC [6, 15] [µg/mL] | MIC [7, 16] [µg/mL] | MIC [8, 17] [µg/mL] | also measured
N[C@@H]1CN(c2c(F)cc3c(=O)c(C(=O)O)cn(C4CC4)c3c2F)C[C@@H]1n1ccnn1 (relative stereo) [Example 17, 7-[cis-3-Amino-4-(1,2,3-triazol-1-yl)-pyrrolidin-1-yl]-1-cyclopropyl-6,8-difluoro-1,4-dihydro-4-oxo-quinoline-3-carboxylic acid] | 1 (≈ 2.4 µM) | – | – | – | – | – | – | – | –
CCOC(=O)c1cn(C2CC2)c2nc(N3C[C@@H](N)[C@@H](n4ccnn4)C3)c(F)cc2c1=O (relative stereo) [Example 6, Ethyl 7-[cis-3-amino-4-(1,2,3-triazol-1-yl)pyrrolidin-1-yl] -1-cyclopropyl-6-fluoro-1,4-dihydro-4-oxo-1,8-naphthyridine-3-carboxylate] | ≤ 0.03 | – | – | – | – | – | – | – | –
Nc1c(F)c(N2C[C@@H](N)[C@@H](n3ccnn3)C2)c(F)c2c1c(=O)c(C(=O)O)cn2-c1ccc(F)cc1F (relative stereo) [Example 19, 5-Amino-7-[cis-3-amino-4-(1,2,3-triazol-1-yl)-pyrrolidin-1-yl]-1-(2,4-difluorophenyl)-6,8-difluoro-1,4-dihydro-4-oxo-quinoline-3-carboxylic acid] | 0.5 (≈ 0.993 µM) | – | – | – | – | – | – | – | –
O=C(O)c1cn(C2CC2)c2nc(N3CC[C@H](n4ccnn4)C3)c(F)cc2c1=O [Example 5] | ≤ 0.03 | – | – | – | – | – | – | – | –
Nc1c(F)c(N2C[C@@H](N)[C@@H](n3ccnn3)C2)c(F)c2c1c(=O)c(C(=O)O)cn2C1CC1 (relative stereo) [Example 18, 5-Amino-7-[cis-3-amino-4-(1,2,3-triazol-1-yl)-pyrrolidin-1-yl]-1-cyclopropyl-6,8-difluoro-1,4-dihydro-4-oxo-quinoline-3-carboxylic acid] | 0.5 (≈ 1.16 µM) | – | – | – | – | – | – | – | –
O=C(O)c1cn(-c2ccc(F)cc2)c2c(F)c(N3CCC(n4ccnn4)C3)c(F)cc2c1=O (centres unmarked) [Example 2, 6,8-Difluoro-1-(4-fluorophenyl)-7-[3-(1,2,3-triazol-1-yl)-pyrrolidin-1-yl]-1,4-dihydro-4-oxo-quinoline-3-carboxylic acid] | ≤ 0.06 | – | – | – | – | – | – | – | –
CCOC(=O)c1cn(C2CC2)c2nc(N3CC[C@H](n4ccnn4)C3)c(F)cc2c1=O [Example 4, Ethyl 1-cyclopropyl-6-fluoro-7-[3(S)-(1,2,3-triazol-1-yl)pyrrolidin-1-yl]-1,4-dihydro-4-oxo-1,8-naphthyridine-3-carboxylate] | ≤ 0.06 | – | – | – | – | – | – | – | –
N,N,N-Trimethyl-N-(2-hydroxyethyl) ammonium 1- cyclopropyl-6,8-difluoro-7-[3-(4-methyl-1,2,3-triazol-1-yl)pyrrolidin-1-yl]-1,4-dihydro-4-oxo-quinoline-3-carboxylate [Example 35] | – | – | – | – | – | – | – | – | MIC [2, 9]: .5 µg/mL; MIC [3]: .25 µg/mL; MIC [4]: .25 µg/mL; MIC [5, 10]: .25 µg/mL; MIC [6]: 4 µg/mL; MIC [7, 11]: ≤.015 µg/mL; MIC [8]: .03 µg/mL
O=C(O)c1cn(C2CC2)c2c(F)c(N3CCC(n4ccnn4)C3)c(F)c(O)c2c1=O (centres unmarked) [Example 50, 1-Cyclopropyl-5-hydroxy-6,8-difluoro-7-[-3-(1,2,3-triazol-1-yl)-pyrrolidin-1-yl]-1,4-dihydro-4-oxo-quinoline-3-carboxylic acid] | – | 2 (≈ 4.79 µM) | 1 (≈ 2.4 µM) | 1 (≈ 2.4 µM) | 0.06 (≈ 0.144 µM) | 16 (≈ 38.3 µM) | 0.25 (≈ 0.599 µM) | 0.25 (≈ 0.599 µM) | –
N,N,N-Trimethyl-N-(2-hydroxyethyl)ammonium-1-cyclopropyl-6,8-difluoro-7-[3-(1,2,4-triazol-1-yl)pyrrolidin-1-yl]-1,4-dihydro-4-oxo-quinoline-3-carboxylate [Example 37] | – | – | – | – | – | – | – | – | MIC [2, 9]: 2 µg/mL; MIC [3]: .5 µg/mL; MIC [4]: 1 µg/mL; MIC [5, 10]: 1 µg/mL; MIC [6]: 8 µg/mL; MIC [7, 11]: .06 µg/mL; MIC [8]: .25 µg/mL
NC1CN(c2nc3c(cc2F)c(=O)c(C(=O)O)cn3C2CC2)CC1n1ccnn1 (stereo not drawn) [Example 7, 7-[cis-3-Amino-4-(1,2,3-triazol-1-yl)pyrrolidin-1-yl]-1-cyclopropyl-6-fluoro-1,4-dihdyro-4-oxo-1,8-naphthyridine-3-carboxylic acid hydrochloride] | 0.008 | – | – | – | – | – | – | – | –
C[C@H]1COc2c(N3CCC(n4cncn4)C3)c(F)cc3c(=O)c(C(=O)O)cn1c23 (single isomer, unassigned; (-)) [Example 40] | – | 1 (≈ 2.5 µM) | 1 (≈ 2.5 µM) | 1 (≈ 2.5 µM) | 0.5 (≈ 1.25 µM) | 8 (≈ 20 µM) | 1 (≈ 2.5 µM) | 0.5 (≈ 1.25 µM) | –
Nc1c(F)c(N2CC[C@@H](n3ccnn3)C2)c(F)c2c1c(=O)c(C(=O)O)cn2C1CC1 [Example 13, 5-Amino-1-cyclopropyl-6,8-difluoro-7-[3R-(1,2,3-triazol-1-yl)-pyrrolidin-1-yl)-1,4-dihydro-4-oxo-quinoline-3-carboxylic acid] | 0.008 (≈ 0.0192 µM) | – | – | – | – | – | – | – | –
Cc1cn(C2CCN(c3c(F)c(N)c4c(=O)c(C(=O)O)cn(C5CC5)c4c3F)C2)nn1 (centres unmarked) [Example 25, 5-Amino-1-cyclopropyl-6,8-difluoro-7-[3-(4-methyl-1,2,3-triazol-1-yl)pyrrolidin-1-yl]-1,4-dihydro-4-oxo-quinoline-3-carboxylic acid] | – | 0.25 (≈ 0.581 µM) | 0.06 (≈ 0.139 µM) | 0.25 (≈ 0.581 µM) | 0.25 (≈ 0.581 µM) | 2 (≈ 4.65 µM) | ≤ 0.015 | 0.03 (≈ 0.0697 µM) | –
COc1c(N2CC[C@H](n3ccnn3)C2)c(F)cc2c(=O)c(C(=O)O)cn(C3CC3)c12 [Example 31, 1-Cyclopropyl-6-fluoro-7-[3S-(1,2,3-triazol-1-yl)pyrrolidin-1-yl]-8-methoxy-1,4-dihydro-4-oxo-quinoline-3-carboxylic acid] | – | 0.5 (≈ 1.21 µM) | 0.12 (≈ 0.29 µM) | 0.25 (≈ 0.605 µM) | 0.5 (≈ 1.21 µM) | 2 (≈ 4.84 µM) | ≤ 0.015 | ≤ 0.015 | –
COc1c(N2CCC(n3ccnn3)C2)c(F)cc2c(=O)c(C(=O)O)cn(C3CC3)c12 (centres unmarked) [Example 32, 1-Cyclopropyl-6-fluoro-7-[3-(1,2,3-triazol-1-yl)pyrrolidin-1-yl]-8-methoxy-1,4-dihydro-4-oxo-quinoline-3-carboxylic acid] | – | 0.5 (≈ 1.21 µM) | 0.12 (≈ 0.29 µM) | 0.25 (≈ 0.605 µM) | 0.12 (≈ 0.29 µM) | 4 (≈ 9.68 µM) | ≤ 0.03 | ≤ 0.03 | –
Cc1cnnn1C1CCN(c2c(F)cc3c(=O)c(C(=O)O)cn(C4CC4)c3c2F)C1 (centres unmarked) [Example 22, 1-Cyclopropyl-6,8-difluoro-7-[3-(5-methyl-1,2,3-triazol-1-yl)pyrrolidin-1-yl]-1,4-dihydro-4-oxo-quinoline-3-carboxylic acid] | – | 0.25 (≈ 0.602 µM) | 0.25 (≈ 0.602 µM) | 0.5 (≈ 1.2 µM) | 0.25 (≈ 0.602 µM) | 4 (≈ 9.63 µM) | ≤ 0.015 | 0.12 (≈ 0.289 µM) | –
Cc1c(F)c(N2CCC(n3cc(-c4ccccc4)nn3)C2)c(F)c2c1c(=O)c(C(=O)O)cn2C1CC1 (centres unmarked) [Example 48, 1-cyclopropyl-6,8-difluoro-5-methyl-7-[3(4-phenyl-1,2,3-triazol-1-yl)-pyrrolidin-1-yl]-1,4-dihydro-4-oxo-quinoline-3-carboxylic acid] | – | 4 (≈ 8.14 µM) | 1 (≈ 2.03 µM) | 4 (≈ 8.14 µM) | 0.015 (≈ 0.0305 µM) | 16 (≈ 32.6 µM) | 0.015 (≈ 0.0305 µM) | 0.015 (≈ 0.0305 µM) | –
Cc1cn(C2CCN(c3c(F)c(C)c4c(=O)c(C(=O)O)cn(C5CC5)c4c3F)C2)nn1 (centres unmarked) [Example 21, 1-Cyclopropyl-6,8-difluoro-5-methyl-7-[3-(4-methyl-1,2,3-triazol-1-yl)pyrrolidin-1-yl]-1,4-dihydro-4-oxo-quinoline-3-carboxylic acid] | – | 0.25 (≈ 0.582 µM) | 0.06 (≈ 0.14 µM) | 0.25 (≈ 0.582 µM) | 0.12 (≈ 0.279 µM) | 2 (≈ 4.66 µM) | 0.015 (≈ 0.0349 µM) | 0.015 (≈ 0.0349 µM) | –
Cc1cn(C2CCN(c3c(F)cc4c(=O)c(C(=O)O)cn5c4c3OC[C@@H]5C)C2)nn1 (single isomer, unassigned; (-)) [Example 39] | – | 1 (≈ 2.42 µM) | 0.25 (≈ 0.605 µM) | 1 (≈ 2.42 µM) | 1 (≈ 2.42 µM) | 8 (≈ 19.4 µM) | 0.03 (≈ 0.0726 µM) | 0.12 (≈ 0.29 µM) | –
